The text below walks through data of patent US20170183644A1, “DRUG COCKTAIL ANALYSES USING MICROSCALE VORTEX ASSISTED ELECTROPORATION” (President and Fellows of Harvard College, priority 2014, published 2017).

Experiment [1] relates to MDA-MB-231 cells. Put plainly: Conventional well-plate drug screening assay, CellTiter-Glo cell viability. In kind it is cell-based. To be noted: for effect on cell viability as a single agent: conventional assay. The procedure:
These cells were incubated in a humidified incubator at 37° C. with 0% CO2 environment. Cells were harvested for experiments 2 days after the seeding by treating them with 0.25% trypsin-EDTA for 2 minutes. […] Conventional drug screening assays utilizing well-plates were conducted in parallel to evaluate the performance of the proposed microfluidic system. […] For control experiments using the conventional method, the concentrations of drugs were determined such that cells would be exposed in a well plate for 24 hours to the drug amount that is identical to those used for the microfluidic counterpart. […] The CellTiter-Glo Luminescent Cell Viability Assay (Promega, USA) was used to determine the cytotoxicity of tested drugs. First, the correlation between the luminescent intensity and the number of viable cells for the tested cell line was established from luminescence measurements from 96 well plates containing known-quantity of viable cells (LuMate, Model 4400) (see ESI FIG. 2 for calibration curve). For cytotoxicity studies on cells treated with the drugs, all cells present in the well, regardless their viability, were manually counted prior to adding the CellTiter-Glo reagent to the well. The number of viable cells was determined by identifying the corresponding number of viable cells represented by the measured luminescent intensity from the calibration curve. Viability was determined by taking the ratio between the number of viable cells and the total number of treated cells presented in the well.
Background: ATP-based viability assays read luminescence as a measure of living cells.

Experiment [2] relates to MDA-MB-231 cells. Put plainly: Microfluidic vortex-assisted electroporation drug screening assay, CellTiter-Glo cell viability. The experiment is classed as cell-based. Particulars: for IC50: microfluidic electroporation, single agent, read-out: Proposed IC50; for effect on cell viability as a single agent: microfluidic assay. On the procedure:
These cells were incubated in a humidified incubator at 37° C. with […] environment. Cells were harvested for experiments 2 days after the seeding by treating them with 0.25% trypsin-EDTA for 2 minutes. The cells were pelleted by centrifuging for 5 minutes at 200×g and resuspended in the growth media to have a final concentration of 5×10^5 cells/mL. The system utilized the pneumatic flow control unit and the electrical equipment that we previously developed. Their detailed specifications and visualized operational protocols (Yun et al., 2013; Vickers et al., 2014) can be found elsewhere. In brief, the flow control unit independently and promptly pressurizes individual solution vials for rapid solution exchanges through the microfluidic system while the electrical equipment generates high-voltage short pulses across the electroporation chambers on demand. […] Solution vials, individually containing cells, drugs and a growth media for flushing, were mounted into the pneumatic flow control unit, and PEEK tubes from each vial inserted into designated inlet ports in the microfluidic electroporator. The system was flushed with the growth media at the operating pressure of 40 psi (equivalent to a flow rate of 400 μL/minute) for 90 seconds prior to the target cell injection step in order to prime the flow speed required for cell trapping (Hur et al., 2011). Once the desired size and number distribution of trapped cells were attained in each cell trapping vortex, not-trapped cells were removed from the device by switching the active solution port from the cell solution to the flush solution. […] The magnitude, V, the width, Kt, and the frequency of applied electrical pulses were monitored in real-time using an oscilloscope (Agilent, USA). Drug delivery doses were varied by exposing trapped cells to a single drug for incubation durations of 30, 60 and 120 seconds in continuous flow. For dual drug delivery tests, trapped cells were sequentially incubated in individual drugs with various dosage combinations by systematically changing treatment duration ratios of two drugs (e.g., 30:30 seconds, 30:60 seconds or 30:120 seconds). Upon completion of the drug delivery process, treated cells were suspended in the growth media and released from the device for downstream analysis by lowering the operating pressure to 30 psi. Collected cells were seeded in 96 well plates and cultured for 24 to 48 hours prior to the cytotoxicity assays. […] Conventional drug screening assays utilizing well-plates were conducted in parallel to evaluate the performance of the proposed microfluidic system. […] For control experiments using the conventional method, the concentrations of drugs were determined such that cells would be exposed in a well plate for 24 hours to the drug amount that is identical to those used for the microfluidic counterpart. […] The CellTiter-Glo Luminescent Cell Viability Assay (Promega, USA) was used to determine the cytotoxicity of tested drugs. First, the correlation between the luminescent intensity and the number of viable cells for the tested cell line was established from luminescence measurements from 96 well plates containing known-quantity of viable cells (LuMate, Model 4400) (see ESI FIG. 2 for calibration curve). For cytotoxicity studies on cells treated with the drugs, all cells present in the well, regardless their viability, were manually counted prior to adding the CellTiter-Glo reagent to the well. The number of viable cells was determined by identifying the corresponding number of viable cells represented by the measured luminescent intensity from the calibration curve. Viability was determined by taking the ratio between the number of viable cells and the total number of treated cells presented in the well.

Experiment [3] concerns MDA-MB-231. Particulars: MDA-MB-231 (Akbos et al., 2005); read-out: Literature IC50; cited from earlier work.
The subject of experiment [4] is MC38 colon cancer cell line. Particulars: MC38 colon cancer cell line (Kuriyoma et al., 2000); read-out: Literature IC50; cited from earlier work.
For experiment [5], the system named is Ca-27 squamous carcinoma. To be noted: Ca-27 squamous carcinoma (Wang et al., 2012); read-out: Literature IC50; cited from earlier work.
[6] abbreviates: Homo sapiens, MDA-MB-231, well plate, single agent, read-out: Conventional IC50.

Broadly, the IC50 is the concentration that inhibits the measured activity by half. Consider `CC[C@@]1(O)C(=O)OCc2c1cc1n(c2=O)Cc2cc3c(CN(C)C)c(O)ccc3nc2-1` [Topotecan, topotecan], for which the half-inhibitory concentration (IC50) is 2 µM in experiment [1] (Homo sapiens, MDA-MB-231, FIG. 2 legend, values match conventional assay, read-out: IC50 (FIG. 2 legend)); 2 µM in experiment [1] (setting [6]); 1.2 µM in experiment [2] (Homo sapiens, MDA-MB-231); 1.1 µM in experiment [3]. In addition, the “effect on cell viability as a single agent” value in experiment [1] (single agent) and in experiment [2] was “dose-dependently reduced survival” in each case.
As for bleomycin, the half-inhibitory concentration (IC50) is 30 µM in experiment [1] (FIG. 2 legend, values match conventional assay, read-out: IC50 (FIG. 2 legend)); 20 µM in experiment [1] (well plate, single agent, read-out: Conventional IC50); 0.12 µM in experiment [2]; 12 µM in experiment [4].
Turning to `O=c1c(O)c(-c2ccc(O)c(O)c2)oc2cc(O)cc(O)c12` [quercetin], the “effect on cell viability as a single agent” value in experiment [1] (single agent) is “negligible and dose independent”; in experiment [1] (single agent, listed as Quercetin), “negligible cytotoxic effect”; in experiment [2] it was “negligible and dose independent”; in experiment [2] (listed as Quercetin), “negligible cytotoxic effect”.
For `Nc1ccn([C@@H]2O[C@H](CO)[C@@H](O)C2(F)F)c(=O)n1` [Gemcitabine, gemcitabine], the IC50 in experiment [1] (Homo sapiens, MDA-MB-231, FIG. 2 legend, value matches conventional assay, read-out: IC50 (FIG. 2 legend)) is 2000 µM; in experiment [1] (setting [6]) it was 2000 µM; in experiment [5], 340 µM; in experiment [2] (Homo sapiens, MDA-MB-231) it was 302 µM.
